Data: patent US20090285917A1, “COMPOSITION COMPRISING COMPLEX CRUDE DRUG EXTRACTS SHOWING ANTI-ALLERGIC RHINITIS, ANTI-ATOPIC DERMATITIS AND ANTI-ASTHMA ACTIVITY” (priority 2006, published 2009)
Counter-ions that a name gives are not always drawn.

Tested on: Passive Cutaneous Anaphylaxis in male mouse
Assay: Passive cutaneous anaphylaxis (PCA), evans blue in ears
Format: in vivo
Method: Anti-DNP (anti-Dinitrophenyl) of 1.2 ug/mL, […], Sigma was injected by 10 ul into both ears of a male mouse, and 47 hours after antibody Dinitrophenyl injection, the sample is oral-administrated. One hour later (48 hours after antibody-Dinitrophenyl injection), 1.25 mg of DNP-albumin, […], Sigma and a biological salt solution dissolved with 1.25 mg of evans blue, […], Sigma was injected into a tail vein for thereby causing a certain reaction. Neck back bone was broken, and the mouse was dead, and the evans blue color component was measured from both ears. As control groups, promethazine hydrochloride, […], Sigma was used.

CC(CN1c2ccccc2Sc2ccccc21)N(C)C (stereo not drawn) [Promethazine hydrochloride, promethazine hydrochloride]
Amount of Color (administration amount 2, oral): 7.8 ± 0.5 ug/a pair of ears
Amount of Color (administration amount 5, oral): 5.4 ± 1.1 ug/a pair of ears
Amount of Color (administration amount 10, oral): 1.7 ± 1.0 ug/a pair of ears
